{"source": "paper PMC9493392", "about": "“N-glycosylation modulates enzymatic activity of Trypanosoma congolense trans-sialidase” (The Journal of Biological Chemistry, 2022)", "key": {"TconTS1": {"system": "T1, TconTS1", "T1 construct": "catalytic plus lectin-like domain; C3 protease site, C-terminal SNAP and Strep tag kept; secreted by CHO Lec1 cells; high-mannose N-glycans; mock-incubated 16 h at 37 °C", "assay": "HPAEC-PAD of […]'-sialyllactose formed, […] min, Michaelis-Menten fit", "type": "biochemical, Trypanosoma congolense", "conditions": "two biological replicates; sialic acid acceptor; donor fetuin (600 μM bound Neu5Ac); 10 mM potassium phosphate pH 7.4, 37 °C; N-glycosylated enzyme"}, "H-TconTS1": {"system": "T2, H-TconTS1", "T2 construct": "same polypeptide as P1 (SNAP and Strep tag kept, CHO Lec1 cells), but N-glycans partly removed with EndoHf (16 h), leaving single GlcNAc residues; hypoglycosylated", "assay": "HPAEC-PAD of […]'-sialyllactose formed, […] min, Michaelis-Menten fit", "type": "biochemical, Trypanosoma congolense", "conditions": "two biological replicates, purified differently after EndoHf; sialic acid acceptor; donor fetuin (600 μM bound Neu5Ac); 10 mM potassium phosphate pH 7.4, 37 °C; EndoHf-treated hypoglycosylated enzyme"}}}
{"smiles": "OC[C@H]1O[C@@H](O[C@H]2[C@H](O)[C@@H](O)C(O)O[C@@H]2CO)[C@H](O)[C@@H](O)[C@H]1O", "note": "(some centres unmarked) [lactose]", "values": [{"measurement": "KM (apparent)", "setting": "TconTS1", "value": "1.7 and 2.0 mM"}, {"measurement": "KM (apparent)", "setting": "H-TconTS1", "value": "9.0 and 3.2 mM"}]}
